Source: PubChem BioAssay (NCI)
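Cells were grown in 96-well plates and exposed to each compound for 48 hours at five concentrations; endpoints were interpolated linearly between bracketing concentrations, or set to the highest concentration if not reached. Here, GI50 denotes the concentration required for 50% inhibition of growth. At the TGI there is no net growth.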

Tests used:
Test in all cases: DTP human tumour cell line panel, 48 h
CCRF-CEM leukemia = test system: CCRF-CEM leukemia
TK-10 renal = test system: TK-10 renal
SW-620 colon = test system: SW-620 colon
UO-31 renal = test system: UO-31 renal
NCI-H23 lung = test system: NCI-H23 lung
M14 melanoma = test system: M14 melanoma
SF-539 CNS = test system: SF-539 CNS
LOX IMVI melanoma = test system: LOX IMVI melanoma
HOP-18 NSCLC = test system: HOP-18 NSCLC
DMS 114 small cell lung = test system: DMS 114 small cell lung
LXFL 529 NSCLC = test system: LXFL 529 NSCLC

## O=c1c2c(nc3n1CCS3)[nH]c1cc([N+](=O)[O-])ccc12
CCRF-CEM leukemia
  GI50: > 100 µM
  TGI: > 100 µM
TK-10 renal
  GI50: > 100 µM
  TGI: > 100 µM
SW-620 colon
  GI50: > 100 µM
  TGI: > 100 µM
UO-31 renal
  GI50: > 100 µM
  TGI: > 100 µM
NCI-H23 lung
  GI50: > 100 µM
  TGI: > 100 µM
M14 melanoma
  GI50: > 100 µM
  TGI: > 100 µM
SF-539 CNS
  GI50: > 100 µM
  TGI: > 100 µM
LOX IMVI melanoma
  GI50: > 100 µM
  TGI: > 100 µM

## COc1c/c(=C2\C=c3ccccc3=N2)[nH]/c1=C\c1[nH]c(C)cc1C
CCRF-CEM leukemia
  GI50: < 0.01 µM
  TGI: 6.64 µM
TK-10 renal
  GI50: 0.106 µM
  TGI: 36.7 µM
SW-620 colon
  GI50: < 0.01 µM
  TGI: 51.4 µM
UO-31 renal
  GI50: < 0.0106 µM
  TGI: 0.32 µM
NCI-H23 lung
  GI50: 0.0986 µM
  TGI: 7.08 µM
M14 melanoma
  GI50: 0.64 µM
  TGI: > 31.9 µM
SF-539 CNS
  GI50: 0.0466 µM
  TGI: 4.19 µM
LOX IMVI melanoma
  GI50: < 0.01 µM

## Cc1c(-c2cnccn2)ssc1=S
CCRF-CEM leukemia
  TGI: > 77.4 µM
TK-10 renal
  TGI: 98.7 µM
SW-620 colon
  TGI: > 100 µM
UO-31 renal
  TGI: > 89.7 µM
NCI-H23 lung
  TGI: > 100 µM
M14 melanoma
  TGI: > 100 µM
SF-539 CNS
  TGI: > 100 µM
LOX IMVI melanoma
  TGI: 98.8 µM

## COc1cc2c(cc1OC(C)C)[C@H](c1ccc(Cl)cc1)N(c1ccc(N(C)CC3CCC(N4CCN(C)C(=O)C4)CC3)cc1)C(=O)C2 (some centres not stated)
CCRF-CEM leukemia
  GI50: 2.61 µM
  TGI: 7.48 µM
TK-10 renal
  GI50: 3.63 µM
  TGI: 9.34 µM
SW-620 colon
  GI50: 4.6 µM
  TGI: 10 µM
UO-31 renal
  GI50: 0.305 µM
  TGI: 2.22 µM
NCI-H23 lung
  GI50: 3.34 µM
  TGI: 13.2 µM
M14 melanoma
  GI50: 2.72 µM
  TGI: 7.86 µM
SF-539 CNS
  GI50: 1.64 µM
  TGI: 3.21 µM
LOX IMVI melanoma
  GI50: 0.516 µM
  TGI: 2.19 µM

## CC(=O)Nc1ccc(/C=C/C(=O)c2sc(-c3cccnc3)nc2C)cc1
HOP-18 NSCLC
  TGI: > 100 µM
CCRF-CEM leukemia
  TGI: > 100 µM
TK-10 renal
  TGI: > 100 µM
SW-620 colon
  TGI: > 100 µM
UO-31 renal
  TGI: > 100 µM
NCI-H23 lung
  TGI: > 100 µM
SF-539 CNS
  TGI: > 100 µM
DMS 114 small cell lung
  TGI: > 100 µM
LOX IMVI melanoma
  TGI: > 100 µM

## Cc1onc(-c2ccccc2)c1C(=O)N/N=C/c1cc(Cl)cc(Cl)c1O
CCRF-CEM leukemia
  GI50: 1.48 µM
  TGI: 14.7 µM
TK-10 renal
  GI50: 5.01 µM
  TGI: > 100 µM
SW-620 colon
  GI50: 6.81 µM
  TGI: > 100 µM
UO-31 renal
  GI50: 1.83 µM
  TGI: 12.9 µM
NCI-H23 lung
  GI50: 10.6 µM
  TGI: 67.9 µM
M14 melanoma
  GI50: 3.74 µM
  TGI: 46.3 µM
SF-539 CNS
  GI50: 2.65 µM
  TGI: 11.6 µM
LOX IMVI melanoma
  GI50: 2.93 µM
  TGI: 32.3 µM

## OCC1C(OCc2ccccc2)C(OCc2ccccc2)C(OCc2ccccc2)CN1Cc1ccccc1 (configuration not stated)
CCRF-CEM leukemia
  TGI: > 100 µM
TK-10 renal
  TGI: > 100 µM
SW-620 colon
  TGI: > 100 µM
UO-31 renal
  TGI: 37.3 µM
NCI-H23 lung
  TGI: 53.3 µM
M14 melanoma
  TGI: > 100 µM
SF-539 CNS
  TGI: > 100 µM
LOX IMVI melanoma
  TGI: > 100 µM

## Cc1ccc(O)c(NC(=O)c2cccc(Nc3ccnc(C(F)(F)F)c3)c2)c1
CCRF-CEM leukemia
  GI50: 1.82 µM
  TGI: 39.2 µM
TK-10 renal
  GI50: 19.1 µM
  TGI: 73.5 µM
SW-620 colon
  GI50: 14.6 µM
  TGI: 38.5 µM
UO-31 renal
  GI50: 3.03 µM
  TGI: 18.1 µM
NCI-H23 lung
  GI50: 2.27 µM
  TGI: 21.2 µM
M14 melanoma
  GI50: 7.55 µM
  TGI: 22.3 µM
SF-539 CNS
  GI50: 12.5 µM
  TGI: 25.7 µM
LOX IMVI melanoma
  GI50: 9.46 µM
  TGI: 27.4 µM

## CC(C)C[C@H](NC(=O)CNC(=O)c1cc(Cl)ccc1Cl)B(O)O
CCRF-CEM leukemia
  GI50: 0.0203 µM
  TGI: > 100 µM
TK-10 renal
  GI50: < 0.0138 µM
  TGI: 0.0517 µM
SW-620 colon
  GI50: < 0.0173 µM
UO-31 renal
  GI50: < 0.0131 µM
  TGI: 0.0406 µM
NCI-H23 lung
  GI50: 0.0282 µM
M14 melanoma
  GI50: 0.0202 µM
SF-539 CNS
  GI50: < 0.0125 µM
  TGI: 0.0258 µM
LOX IMVI melanoma
  GI50: 0.0224 µM
  TGI: 0.0597 µM

## NCCSSCc1ccccc1CSSCCN
LXFL 529 NSCLC
  TGI: > 100 µM
HOP-18 NSCLC
  TGI: > 100 µM
TK-10 renal
  TGI: > 100 µM
SW-620 colon
  TGI: 45.8 µM
UO-31 renal
  TGI: > 100 µM
NCI-H23 lung
  TGI: > 100 µM
M14 melanoma
  TGI: > 100 µM
SF-539 CNS
  TGI: > 100 µM
DMS 114 small cell lung
  TGI: > 100 µM
LOX IMVI melanoma
  TGI: 41.8 µM

## Oc1c(Cl)cc(Cl)c(Cl)c1CNCCNCc1c(O)c(Cl)cc(Cl)c1Cl
CCRF-CEM leukemia
  GI50: 0.231 µM
  TGI: > 50 µM
TK-10 renal
  GI50: 2.02 µM
  TGI: 11.2 µM
SW-620 colon
  GI50: 1.71 µM
  TGI: > 50 µM
UO-31 renal
  GI50: 0.625 µM
  TGI: 6.42 µM
NCI-H23 lung
  GI50: 1.42 µM
  TGI: 9.08 µM
M14 melanoma
  GI50: 1.22 µM
  TGI: 26 µM
SF-539 CNS
  GI50: 0.439 µM
  TGI: 5.32 µM
LOX IMVI melanoma
  GI50: 0.357 µM
  TGI: 5.19 µM

## CCc1nc(N)nc(N)c1-c1ccc(Cl)c([N+](=O)[O-])c1
CCRF-CEM leukemia
  TGI: > 32.7 µM
TK-10 renal
  TGI: > 100 µM
SW-620 colon
  TGI: > 100 µM
UO-31 renal
  TGI: > 100 µM
NCI-H23 lung
  TGI: > 100 µM
M14 melanoma
  TGI: 98.8 µM
SF-539 CNS
  TGI: 51.4 µM
LOX IMVI melanoma
  TGI: > 100 µM

## COc1ccc(/C=C\c2cc(OC)c(OC)c(OC)c2)cc1OCC(=O)Nc1nc2ccc(F)cc2s1
CCRF-CEM leukemia
  GI50: 3.7 µM
  TGI: > 100 µM
TK-10 renal
  GI50: 9.89 µM
  TGI: > 100 µM
SW-620 colon
  GI50: 65.1 µM
  TGI: > 100 µM
UO-31 renal
  GI50: 2.56 µM
  TGI: > 100 µM
NCI-H23 lung
  GI50: 4.26 µM
  TGI: > 100 µM
M14 melanoma
  GI50: 6.82 µM
  TGI: > 100 µM
SF-539 CNS
  GI50: 4.51 µM
  TGI: > 100 µM
LOX IMVI melanoma
  GI50: 3.23 µM
  TGI: > 100 µM
